Test results taken from patent US20260198495A1, “BINARY INSECTICIDE COMPOSITION AND USE THEREOF” (SHENYANG SINOCHEM AGROCHEMICALS R & D CO., LTD., priority 2022, published 2026).

Legend:
Format in all cases: in vivo
Aphis craccivora nymphs = experiment: Synergism screening (Bliss) of I-72 + pyrethroid insecticides, Example 38, Table 38; conditions: for mortality at 0.15 µg/mL / mortality at 2 µg/mL / mortality at 3 µg/mL / mortality at 0.3 µg/mL / mortality at 1 µg/mL: Aphis craccivora, in Vicia faba, 48 h; for mortality at 0.15 µg/mL: read-out: Measured mortality rate (%), single pesticide, concentration 0.15 mg/L, broad bean seedling spraying; for mortality at 2 µg/mL: read-out: Measured mortality rate (%), single pesticide, concentration 2 mg/L, broad bean seedling spraying; for mortality at 3 µg/mL: read-out: Measured mortality rate (%), single pesticide, concentration 3 mg/L, broad bean seedling spraying; for Measured mortality rate (%): single pesticide, broad bean seedling spraying, 48 hours; for mortality at 0.3 µg/mL: read-out: Measured mortality rate (%), single pesticide, concentration 0.3 mg/L, broad bean seedling spraying; for mortality at 1 µg/mL: read-out: Measured mortality rate (%), single pesticide, concentration 1 mg/L, broad bean seedling spraying
Method: Test target: Aphis craccivora nymphs, a sensitive strain reared indoors.
(§1) Preparation of the pesticide solution: according to different test requirements, the test samples were accurately weighed respectively with an electronic analytical balance. The technical pesticides were dissolved in acetone, and then diluted with 0.1% Tween 80 water into a series of pesticide solutions with a certain concentration gradient according to the experimental design dosage.
Experimental method: first, broad bean seedlings with uniform and consistent Aphis craccivora were selected, with about 30-40 insects on each seedling. Then, they were evenly sprayed with the pesticide solution in the order from low dosage to high dosage according to the experimental design, with 1.5 mL of the solution for each leaf and 3 replicates for each treatment. In addition, a blank control (CK) was set up.
(§2) The treated test materials were placed in an observation room, and the temperature, humidity and illumination of the observation room could be adjusted as needed. The number of dead and alive insects was investigated 48 hours later, and the corrected mortality rate was calculated using the Abbott's formula.
(§3) The synergism of the mixture was evaluated by adopting the Bliss method, as in Example 5.

[1] = system: 3rd-instar larvae of Yponomeuta evonymallus (Linnaeus); experiment: Synergism screening (Bliss) of I-72 + pyrethroid insecticides, Example 37, Table 37; conditions: single pesticide, leaf dipping, 72 hours
Method: Test target: 3rd-instar larvae of Yponomeuta evonymallus (Linnaeus).
as §1
(§4) Experimental method: Firstly, Hylotelephium spectabile leaves were selected and dipped into the prepared pesticide solutions for 10 s in the order from low dosage to high dosage according to the experimental design. After natural air-drying in the shade, they were placed in a 9-cm-diameter Petri dish with filter paper, and uniform and healthy test insects were introduced, with 10 insects for each treatment and 3 replicates for each treatment. In addition, a blank control (CK) was set up.
as §2, with “72” for “48”
(§5) The synergism of the mixture was evaluated by the Bliss method. According to the concept of independent joint action he proposed, Bliss believes that the theoretical mortality rate P when insecticides are used in combination can be calculated by the following formula: […]
(§6) Pm is the measured mortality rate (%) of the target when the first active ingredient is at a concentration of m; and Pn is the measured mortality rate (%) of the target when the second active ingredient is used at a concentration of n.
(§7) If the actual mortality rate of the target after the two active ingredients are mixed at a certain concentration is greater than theoretical mortality rate P, it is determined that the two active ingredients have a synergistic effect when used in combination at the set concentration, and otherwise, they have an antagonistic effect.

[2] = system: 3rd-instar larvae of Ostrinia furnacalis Guenee; experiment: Synergism screening (Bliss) of I-72 + ecdysteroid and juvenile hormone insecticides, Example 51, Table 51; conditions: Ostrinia furnacalis, 72 h, read-out: Measured mortality rate
Method: Test target: 3rd-instar larvae of Ostrinia furnacalis Guenee.
as §1
as §4, with “first, tender corn stems” for “Firstly, Hylotelephium spectabile leaves”, “in” for “into”, “solution” for “solutions”
as §2, with “72” for “48”
as §3

[3] = system: 2nd-instar larvae of Plutella xylostella; experiment: Synergism screening (Bliss) of I-72 + insect attractants and insecticides, Example 49, Table 49; conditions: for Measured mortality rate: single pesticide, 72 hours
Method: (§8) Test target: 2nd-instar larvae of Plutella xylostella.
as §1
as §4, with “first, cabbage” for “Firstly, Hylotelephium spectabile”, “in” for “into”, “solution” for “solutions”, “CK” for “(CK)”
as §2, with “72” for “48”
as §3

[4] = system: 2nd-instar larvae of Plutella xylostella; experiment: whole plant or invertebrate; conditions: for Measured mortality rate: single pesticide, 72 hours; for mortality at 0.025 µg/mL / mortality at 0.5 µg/mL / mortality at 10 µg/mL / mortality at 0.01 µg/mL / mortality at 25 µg/mL: Plutella xylostella, 72 h, read-out: Measured mortality rate
Method: as §8, §1
as §4, with “first, cabbage” for “Firstly, Hylotelephium spectabile”, “in” for “into”, “solution” for “solutions”
as §2, with “72” for “48”
as §5, §6, §7

[5] = Plutella xylostella, 72 h, read-out: Measured mortality rate

Cc1c(COC(=O)[C@@H]2[C@H](/C=C(\Cl)C(F)(F)F)C2(C)C)cccc1-c1ccccc1 (racemic) [Bifenthrin]
mortality at 0.15 µg/mL (Aphis craccivora nymphs): 10%
mortality at 2 µg/mL (Aphis craccivora nymphs): 49.1%
mortality at 3 µg/mL (Aphis craccivora nymphs): 62%

CC1(C)[C@H](C(=O)O[C@H](C#N)c2cccc(Oc3ccccc3)c2)[C@@H]1/C=C(\Cl)C(F)(F)F (racemic) [Lambda-cyhalothrin]
Measured mortality rate (%) ([1]; concentration 0.25 mg/L): 16.1%
Measured mortality rate (%) ([1]; concentration 2 mg/L): 39.3%
Measured mortality rate (%) ([1]; concentration 5 mg/L): 53.3%

COC(C)(C)CCC[C@H](C)C/C=C/C(C)=C/C(=O)OC(C)C (racemic) [Methoprene]
mortality at 0.04 µg/mL [2]: 10%
mortality at 2 µg/mL [2]: 17.9%
mortality at 100 µg/mL [2]: 25%

CC1(C)C(C=C(Cl)Cl)C1C(=O)OC(C#N)c1cccc(Oc2ccccc2)c1 (stereo not drawn) [Alpha-cypermethrin]
Measured mortality rate (%) ([1]; concentration 0.5 mg/L): 9.1%
Measured mortality rate (%) ([1]; concentration 1 mg/L): 19.4%
Measured mortality rate (%) ([1]; concentration 5 mg/L): 43.8%

CC1(C)C(C=C(Cl)Cl)C1C(=O)OC(C#N)c1ccc(F)c(Oc2ccccc2)c1 (stereo not drawn) [Beta-cyfluthrin]
Measured mortality rate (%) ([1]; concentration 0.5 mg/L): 12.9%
Measured mortality rate (%) ([1]; concentration 1 mg/L): 21.4%
Measured mortality rate (%) ([1]; concentration 5 mg/L): 51.6%

CC1(C)[C@H](C=C(Cl)Cl)[C@H]1C(=O)O[C@@H](C#N)c1cccc(Oc2ccccc2)c1 [Beta-cypermethrin]
Measured mortality rate (%) (Aphis craccivora nymphs; concentration 0.3 mg/L): 16.1%
Measured mortality rate (%) (Aphis craccivora nymphs; concentration 1 mg/L): 49.7%

CC12CCC(CC1=O)C2(C)C (stereo not shown) [Camphor]
mortality at 0.002 µg/mL [3, 5]: 7.4%
mortality at 0.1 µg/mL [3, 5]: 9.7%
mortality at 5 µg/mL [3, 5]: 13.8%

O=C(NC(=O)c1ccccc1Cl)Nc1ccc(Cl)cc1 [Chlorbenzuron]
Measured mortality rate ([4]; 0.01 mg/L): 6.5%
Measured mortality rate ([4]; 0.5 mg/L): 14.8%
Measured mortality rate ([4]; 25 mg/L): 25.8%

O=C(NC(=O)c1c(F)cccc1F)Nc1cc(Cl)c(Oc2ncc(C(F)(F)F)cc2Cl)c(Cl)c1 [Chlorfluazuron]
mortality at 0.025 µg/mL [4]: 3.4%
mortality at 0.5 µg/mL [4]: 10.3%
mortality at 10 µg/mL [4]: 24.1%

CC1(C)C(C=C(Cl)Cl)C1C(=O)OC(C#N)c1ccc(F)c(Oc2ccccc2)c1 (stereo not shown) [Cyfluthrin]
Measured mortality rate (%) ([1]; concentration 0.5 mg/L): 10.0%
Measured mortality rate (%) ([1]; concentration 1 mg/L): 18.8%
Measured mortality rate (%) ([1]; concentration 5 mg/L): 48.4%

CC1(C)C(C=C(Cl)Cl)C1C(=O)OC(C#N)c1cccc(Oc2ccccc2)c1 (stereo not shown) [Cypermethrin]
mortality at 0.15 µg/mL (Aphis craccivora nymphs): 13.3%
mortality at 2 µg/mL (Aphis craccivora nymphs): 60.9%

CC1(C)[C@H](C(=O)O[C@H](C#N)c2cccc(Oc3ccccc3)c2)[C@@H]1C=C(Br)Br [Deltamethrin]
mortality at 0.3 µg/mL (Aphis craccivora nymphs): 17.3%
mortality at 1 µg/mL (Aphis craccivora nymphs): 28%
mortality at 3 µg/mL (Aphis craccivora nymphs): 61.4%

CC(C)c1cc(Oc2ccccc2)cc(C(C)C)c1NC(=S)NC(C)(C)C [Diafenthiuron]
mortality at 0.025 µg/mL [4]: 6.3%
mortality at 0.5 µg/mL [4]: 13.3%
mortality at 10 µg/mL [4]: 21.4%

O=C(NC(=O)c1c(F)cccc1F)Nc1ccc(Cl)cc1 [Diflubenzuron]
mortality at 0.01 µg/mL [4]: 11.1%
mortality at 0.5 µg/mL [4]: 12.9%
mortality at 25 µg/mL [4]: 31%

CC(C)[C@H](C(=O)O[C@H](C#N)c1cccc(Oc2ccccc2)c1)c1ccc(Cl)cc1 [Esfenvalerate]
Measured mortality rate (%) ([1]; concentration 0.5 mg/L): 9.4%
Measured mortality rate (%) ([1]; concentration 1 mg/L): 13.8%
Measured mortality rate (%) ([1]; concentration 5 mg/L): 40.0%

CCOc1ccc(C(C)(C)COCc2cccc(Oc3ccccc3)c2)cc1 [Etofenprox]
mortality at 0.15 µg/mL (Aphis craccivora nymphs): 14%
mortality at 2 µg/mL (Aphis craccivora nymphs): 49.5%

CC1(C)C(C(=O)OC(C#N)c2cccc(Oc3ccccc3)c2)C1(C)C (stereo not shown) [Fenpropathrin]
Measured mortality rate (%) ([1]; concentration 0.5 mg/L): 13.3%
Measured mortality rate (%) ([1]; concentration 1 mg/L): 22.6%
Measured mortality rate (%) ([1]; concentration 5 mg/L): 40.7%

CC(C)C(C(=O)OC(C#N)c1cccc(Oc2ccccc2)c1)c1ccc(Cl)cc1 (stereo not shown) [Fenvalerate]
mortality at 0.3 µg/mL (Aphis craccivora nymphs): 14.7%
mortality at 1 µg/mL (Aphis craccivora nymphs): 29%
mortality at 3 µg/mL (Aphis craccivora nymphs): 51.1%

N#Cc1nn(-c2c(Cl)cc(C(F)(F)F)cc2Cl)c(N)c1[S+]([O-])C(F)(F)F (stereo not shown) [Fipronil]
mortality at 0.01 µg/mL [3, 5]: 6.7%
mortality at 0.1 µg/mL [3, 5]: 16.7%
mortality at 1 µg/mL [3, 5]: 27.6%

O=C(NC(=O)c1c(F)cccc1F)Nc1ccc(Oc2ccc(C(F)(F)F)cc2Cl)cc1F [Flufenoxuron]
mortality at 0.01 µg/mL [4]: 9.7%
mortality at 0.5 µg/mL [4]: 10.7%
mortality at 25 µg/mL [4]: 27.6%

CON=CNC(=O)c1ccc(C2=NOC(c3cc(Cl)cc(Cl)c3)(C(F)(F)F)C2)cc1C (stereo not shown) [Fluxametamide]
Measured mortality rate ([3]; 0.01 mg/L): 6.9%
Measured mortality rate ([3]; 0.1 mg/L): 48.4%
Measured mortality rate ([3]; 1 mg/L): 75.9%

CC1(C)[C@H](C(=O)O[C@H](C#N)c2cccc(Oc3ccccc3)c2)[C@@H]1/C=C(\Cl)C(F)(F)F [Gamma-cyhalothrin]
Measured mortality rate (%) ([1]; concentration 0.1 mg/L): 6.9%
Measured mortality rate (%) ([1]; concentration 5 mg/L): 48.3%

O=C(NC(=O)c1c(F)cccc1F)Nc1cc(Cl)c(OC(F)(F)C(F)F)c(Cl)c1 [Hexaflumuron]
mortality at 0.025 µg/mL [4]: 6.7%
mortality at 0.5 µg/mL [4]: 13.8%
mortality at 10 µg/mL [4]: 22.6%

CCN1OCC(NC(=O)c2ccc(C3=NOC(c4cc(Cl)c(F)c(Cl)c4)(C(F)(F)F)C3)cc2C)C1=O (stereo not shown) [Isocycloseram]
Measured mortality rate ([3]; 0.01 mg/L): 17.9%
Measured mortality rate ([3]; 0.1 mg/L): 71.9%
Measured mortality rate ([3]; 1 mg/L): 80.0%

O=C(NC(=O)c1c(F)cccc1F)Nc1cc(Cl)c(OC(F)(F)C(F)C(F)(F)F)cc1Cl (stereo not shown) [Lufenuron]
mortality at 0.025 µg/mL [4]: 7.4%
mortality at 0.5 µg/mL [4]: 12.5%
mortality at 10 µg/mL [4]: 20.7%

CCCCCCCC/C=C\CCCCCCCCCCCCC [Muscalure]
Measured mortality rate ([3]; 0.002 mg/L): 3.1%
Measured mortality rate ([3]; 0.1 mg/L): 10.0%
Measured mortality rate ([3]; 5 mg/L): 20.7%

CC1(C)C(C=C(Cl)Cl)C1C(=O)OCc1cccc(Oc2ccccc2)c1 (stereo not shown) [Permethrin]
mortality at 0.3 µg/mL (Aphis craccivora nymphs): 12%
mortality at 1 µg/mL (Aphis craccivora nymphs): 25.3%
mortality at 3 µg/mL (Aphis craccivora nymphs): 64.8%

FC(F)(F)c1ccc(OCCCOc2c(Cl)cc(OCC=C(Cl)Cl)cc2Cl)nc1 [Pyridalyl]
mortality at 0.005 µg/mL [3, 5]: 8%
mortality at 0.1 µg/mL [3, 5]: 12.9%
mortality at 2 µg/mL [3, 5]: 24.1%

CC1(C)[C@H](C=C(Cl)Cl)[C@H]1C(=O)O[C@H](C#N)c1cccc(Oc2ccccc2)c1 [Theta-cypermethrin]
Measured mortality rate (%) ([1]; concentration 0.5 mg/L): 10.3%
Measured mortality rate (%) ([1]; concentration 1 mg/L): 16.7%
Measured mortality rate (%) ([1]; concentration 5 mg/L): 46.4%

O=C(NC(=O)c1ccccc1Cl)Nc1ccc(OC(F)(F)F)cc1 [Triflumuron]
mortality at 0.025 µg/mL [4]: 6.9%
mortality at 0.5 µg/mL [4]: 13.8%
mortality at 10 µg/mL [4]: 17.2%

CC1(C)C(C=C(Cl)Cl)C1C(=O)OC(C#N)c1cccc(Oc2ccccc2)c1 (stereo not shown) [Zeta-cypermethrin]
Measured mortality rate (%) (Aphis craccivora nymphs; concentration 0.15 mg/L): 17.1%
Measured mortality rate (%) (Aphis craccivora nymphs; concentration 2 mg/L): 64.5%

Pyrethrin
Measured mortality rate (%) (Aphis craccivora nymphs; concentration 0.3 mg/L): 15.6%
Measured mortality rate (%) (Aphis craccivora nymphs; concentration 1 mg/L): 25.6%
Measured mortality rate (%) (Aphis craccivora nymphs; concentration 3 mg/L): 63.0%
